Laboratory results: article PMC1769465, “Toxicity Assays in Nanodrops Combining Bioassay and Morphometric Endpoints” (PLoS ONE, 2007)
Read-outs that look alike come from different tables or passages of the source.

What was measured:
[1] = test system: HepG2 A10/hsp22 stress inducible clone; conditions: for IC50: read-out: IC50 (Cell Number)
[2] = test system: EGFP expressing stress inducible clones; design: method as in PMID 16492392; conditions: 6 h toxic induction combined with a 12–18 h recovery period; read-out: IC50 in 96 well format assays; cited from earlier work
[3] = test system: HepG2 cells; design: method as in PMID 16111842; conditions: read-out: IC50, neutral red quantification, cited from earlier work
[4] = test system: HepG2 A10/hsp22 stress inducible clone; assay: cells; assay type: cell-based, human
[5] = test system: Drosophila melanogaster hsp22 promoter; assay type: cell-based; conditions: for IC50: read-out: IC50 derived from KS curves, EGFP expression
[6] = test system: HepG2 cells; design: method as in PMID 16111842; conditions: read-out: IC50, MTT assay, cited from earlier work
[7] = test system: HepG2 cells; conditions: cited from earlier work
[8] = test system: hsp22 promoter; conditions: cited from earlier work
[9] = test system: HeLa cells; conditions: cited from earlier work
[10] = test system: HepG2 A10/hsp22 stress inducible clone; assay: cells; conditions: Homo sapiens, HepG2, read-out: IC50 (Cell Number)
[11] = […], linear regression, two independent experiments
[12] = calculated on Kolmogorov-Smirnov score curves
[13] = same stress inducible clones, 96-well format

## [Cl][Cd][Cl] [CdCl2, Cadmium chloride]
[1]
  doses giving an obvious decrease in cell number: greater than 20 µM
[1]; [11]
  IC50: 83 µM
[2]
  IC50: 50 µM
[3]; HepG2, 5 h exposure
  IC50: 100 µM
[3]; HepG2, 8 h exposure
  IC50: 80 µM
[3]; HepG2, 24 h exposure
  IC50: 8 µM
[4]; HepG2 A10 clone
  concentrations causing a decrease in Shape Index: above 20 µM
[4]; [11]
  IC50 for Shape Index: 32 µM
[4]; […], linear regression, two independent experiments, read-out: IC50 for Cell Area
  IC50: 29 µM
[4]; […], linear regression, two independent experiments, read-out: IC50 for Cell Roundness
  IC50: 52 µM
[4]; [12]
  IC50 derived from KS curves, Shape Index: 48 µM
[4]; calculated on Kolmogorov-Smirnov score curves, read-out: IC50 derived from KS curves, Cell Area
  IC50: 25 µM
[4]; calculated on Kolmogorov-Smirnov score curves, read-out: IC50 derived from KS curves, Roundness
  IC50: 60 µM
[4]; decrease from around 900 µm^2
  Cell Area after toxic insult (cell shrinkage): around 400 µm^2
[4]; late dose, particularly with cadmium
  dose at which increase in Cell Roundness occurred: 100 µM
[5]
  dose at which EGFP expression could be detected: 50 µM
  dose at which hsp22 promoter activation (EGFP) disappeared: 100 µM
  dose of maximum activation of hsp22 promoter (EGFP expression): around 50 µM
[5]; [12]
  IC50: 28 µM
[6]; HepG2, 3 h exposure
  IC50: 500 µM
[6]; HepG2, 5 h exposure
  IC50: 100 µM
[6]; HepG2, 8 h exposure
  IC50: 40 µM
[6]; HepG2, 24 h exposure
  IC50: 15 µM
[7]; HepG2, 24 h exposure
  concentration that elicited mild (20–25%) cytotoxicity: 40 µM
  concentration that elicited minimal (≤5%) cytotoxicity: 15 µM
  concentration that elicited more severe (approximately 50%) cytotoxicity: 60 µM
[7]; read-out: IC50 for cytotoxicity, HepG2, 24 h exposure
  IC50: 60 to 70 µM
[8]; reported
  induction windows: 10 to 100 µM
[8]; [13]
  concentration over which promoter activity gradually decreased: over 60 µM
  peak expression of EGFP (concentration): around 50 µM
[9]
  CC50: 50 µM

## Sodium arsenate
[1]
  doses giving an obvious decrease in cell number: greater than 20 µM
  IC50: 85 µM
[4]
  Cell Area after toxic insult (cell shrinkage): around 400 µm^2
  IC50 derived from KS curves, Roundness: no significant Roundness effect
  IC50 derived from KS curves, Shape Index: 32 µM
  IC50 for Shape Index: 24 µM
  concentrations causing a decrease in Shape Index: above 20 µM
  dose after which Shape Index distribution was significantly different from control (KS): > 50 µM
  dose at which Cell Area reached the KS score 0.2 threshold: 5 µM
  dose at which increase in Cell Roundness occurred: 100 µM
[4]; read-out: IC50 derived from KS curves, Cell Area
  IC50: 19 µM
[4]; read-out: IC50 for Cell Area
  IC50: 29 µM
[4]; read-out: IC50 for Cell Roundness
  IC50: 59 µM
[5]
  dose at which EGFP Grey Level reached the KS score 0.2 threshold: 10 µM
  dose at which EGFP expression could be detected: 20 µM
  dose at which hsp22 promoter activation (EGFP) disappeared: 100 µM
  IC50: 19 µM
[7]
  IC50: 60 to 70 µM
  concentration that elicited mild (20–25%) cytotoxicity: 55 µM
  concentration that elicited minimal (≤5%) cytotoxicity: 15 µM
  concentration that elicited more severe (approximately 50%) cytotoxicity: 70 µM
[8]
  induction windows: 10 to 100 µM

## C[n+]1ccc(-c2cc[n+](C)cc2)cc1 [Paraquat]
[1]; human
  doses giving an obvious decrease in cell number: greater than 20 µM
[10]
  IC50: 88 µM
[4]; Homo sapiens, HepG2, 6 h, […], linear regression, two independent experiments, read-out: IC50 for Cell Area
  IC50: 44 µM
[4]; [11]
  IC50 for Shape Index: 29 µM
[4]; compared with Arsenate and Cadmium
  Shape Index effect (in words): did not induce as significant a decrease of this index
[4]; compared with heavy metals
  Cell Roundness effect (in words): produced a less significant effect
[4]; decrease from around 900 µm^2
  Cell Area after toxic insult (cell shrinkage): 700 µm^2
[5]; HepG2 A10 clone, 0.5 µM to 1 mM
  EGFP expression with hsp22 promoter (in words): did not induce any significant EGFP expression
